Assay results published in US12303541B2, “Erodium crassifolium L'Her plant extracts and uses thereof” (priority 2015, dated 2025).

Tested on: IL-8
Assay: IL-8 levels in TNF-α treated HaCaT cells (EE, fractions, pure compounds)
Format: cell-based, human
Conditions: for reduction of IL-8 levels by individual pure compounds: tested separately at the concentration present in comb-1, HaCaT
Method: After incubation, cell excitation was performed with recombinant human tumor necrosis factor-α (TNF-α, PeproTech, 300-01A, USA). Cultures in each well were treated with a final concentration of 50 ng/mL of TNFα and 50 μL plant extract. Three different controls were included in all experiments: (a) non-treated cells, with neither TNF-α nor plant extracts, (b) cells treated with TNF-α alone, (c) cells treated with TNF-α and the solvent (7% ethanol). The supernatant was collected, and the level of IL-8 was measured 16 h post-treatment using the commercial Human CXCL8/IL-8 DuoSet ELISA kit (R&D Systems, DY208-05, USA) according to the manufacturer's protocol. IL-8 is a common biomarker for inflammatory skin diseases. 16 h of TNF-α exposure induce IL-8 levels. Dexamethasone (Sigma-Aldrich, D4902, USA) was used as a positive control.

Molecule	IL-8 levels (17.6 μg/mL)	IL-8 reduction activity (all examined concentrations of pure standard)	reduction of IL-8 levels by individual pure compounds	IL-8, % of TNF-α activated cells (100 μM, HaCaT)	level of IL-8 (100 μM, TNF-α 50 ng/mL, 16 h, HaCaT)
Oc1cc(O)c2c(c1)O[C@H](c1cc(O)c(O)c(O)c1)[C@H](O)C2 [EGC, (−)-Epigallocatechin]	led to increased IL-8 levels	None of the examined concentrations of pure standard EGC showed any significant IL-8 reduction activity	inactive for reduction of IL-8 levels		
C[C@@H]1C[C@H]2[C@@H]3CCC4=CC(=O)C=C[C@]4(C)[C@@]3(F)[C@@H](O)C[C@]2(C)[C@@]1(O)C(=O)CO [dexamethasone, Dexamethasone]				59.4%	104.0 ± 3.0 pg/mL
O=C(O)c1cc(O)c(O)c(O)c1 [gallic acid]			inactive for reduction of IL-8 levels		
catechin			inactive for reduction of IL-8 levels		
